In patent publication US20240226228A1, “ANTIMICROBIAL PEPTOID HAVING IMPROVED SELECTIVITY AND ANTIMICROBIAL COMPOSITION COMPRISING SAME” (priority 2021, published 2024):
Where a SMILES comes first, the peptide text is derived from it. [ ]: non-standard residue; d: D form. Gly(N(CH2)2(3-indolyl)) = O=C(O)CNCCc1c[nH]c2ccccc12; Nspe = C[C@H](NCC(=O)O)c1ccccc1; Nlys = NCCCCNCC(=O)O

Experiments:
[1] = tested on: S. aureus ATCC 25923; conditions: Table 18; TFA salt vs counter ion-substituted (HCl, AcOH) peptoids
Method in brief: (§1)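 Cation-adjusted MHB2 cultures (18 h, subcultured 4 h) adjusted to 2×10^5–5×10^5 CFU/mL in medium with 0.02% BSA and 0.001% acetic acid.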

[2] = tested on: E. coli ATCC25922; conditions: Table 18; TFA salt vs counter ion-substituted (HCl, AcOH) peptoids
Method in brief: as §1

[3] = tested on: red blood cells; test: Hemolysis assay; type: cell-based, Sprague-Dawley mouse
Method in brief: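 Peptoid is mixed with 10% (v/v) PBS-washed erythrocytes (male Sprague-Dawley […], 13 weeks) and held 1 h at 37 °C. Hemolysis is calculated from 540 nm absorbance of the supernatant, with PBS as 0% and Triton X-100 as 100%.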

[4] = tested on: Human lung cells (MRC-5); test: in vitro
Procedure: (§2) Human lung cells (MRC-5) were purchased from the Korean Cell Line Bank, and human keratinocytes (HaCaT) were purchased from the AmorePacific R&D Center. All cells were grown in a Dulbecco's modified Eagle's medium containing 10% fetal bovine serum under conditions of 5% CO2 and 37° C. To confirm the effect of a peptoid on cell growth, 3-(4,5-dimethylthiazol-2-yl)-5-(3-carboxymethoxyphenyl)-2-(4-sulfophenyl)-2H-tetrazolium (MTS) cell assay was performed to determine cell viability. An aliquot (100 μL) of a batch including 1.3×10^4 MRC-5 cells/mL or 3×10^4 HaCaT cells/mL was dispensed into each well of a 96-well plate. The cells were grown at 37° C. in a 5% CO2 humid atmosphere and allowed to adhere for 24 hours. When the cells reached approximately 70% confluency, the medium was replaced with serial dilutions of the peptoid stock and incubated for 24 hours. 20 μL of a CellTiter 96 aqueous non-radioactive cell proliferation assay reagent (Promega, USA) including a tetrazolium compound was added to each well.
(§3) The contents in the plate were metabolized by incubating at 37° C. for 4 hours. An MTS-formazan product of viable cells was measured at 490 nm using a microplate reader, and cell viability (%) was calculated by Equation 2 below and compared with untreated cells.
(§4) Cell viability (%)=[A/(Acontrol)]×100 [Equation 2]
(§5) In Equation 2, A is the absorbance of a test well, and Acontrol is the average absorbance of a well containing untreated cells.
(§6) The term “nd” shown in Table 19 below is the abbreviation for not determined, and indicates a value that is too small or too large to be measured.

[5] = tested on: human keratinocytes (HaCaT); test: in vitro
Procedure: as §2, §3, §4, §5, §6

Compound	MIC S. aureus ATCC 25923 [1] [µM]	MIC E. coli ATCC25922 [2] [µM]	HC10 [3]	HC50 [3]	Hmax (100 μM) [3] [%]	LC50 / animal cell toxicity, MRC-5 (in words) [4]	LC50 / animal cell toxicity, HaCaT (in words) [5]
C[C@@H](c1ccccc1)N(CC(=O)N(CCCCN)CC(=O)N(CCc1c[nH]c2ccccc12)CC(=O)N(CCc1c[nH]c2ccccc12)CC(N)=O)C(=O)CN(CCCCN)C(=O)CN(CCCCN)C(=O)CN(C(=O)CN(C(=O)CN(CCCCN)C(=O)CN(C(=O)CN(C(=O)CNCCCCN)[C@@H](C)c1ccccc1)[C@@H](C)c1ccccc1)[C@@H](C)c1ccccc1)[C@@H](C)c1ccccc1 [Peptoid 29-1] (H-[Nlys][Nspe][Nspe][Nlys][Nspe][Nspe][Nlys][Nlys][Nspe][Nlys][Gly(N(CH2)2(3-indolyl))][Gly(N(CH2)2(3-indolyl))]-NH2)	12.5	12.5	>100/>100 μM	>100/>100 μM	4.3 ± 0.3	LC50 values of the peptoids increase	LC50 values of the peptoids increase
C[C@@H](c1ccccc1)N(CC(=O)N(CCCCN)CC(=O)N(CCc1c[nH]c2ccccc12)CC(=O)N(CCc1c[nH]c2ccccc12)CC(N)=O)C(=O)CN(CCCCN)C(=O)CN(CCCCN)C(=O)CN(C(=O)CN(C(=O)CN(CCCCN)C(=O)CN(C(=O)CN(C(=O)CNCCCCN)[C@@H](C)c1ccccc1)[C@@H](C)c1ccccc1)[C@@H](C)c1ccccc1)[C@@H](C)c1ccccc1 [Peptoid 29-2] (H-[Nlys][Nspe][Nspe][Nlys][Nspe][Nspe][Nlys][Nlys][Nspe][Nlys][Gly(N(CH2)2(3-indolyl))][Gly(N(CH2)2(3-indolyl))]-NH2)	12.5	6.3	>100/>100 μM	>100/>100 μM	5.2 ± 0.2	LC50 values of the peptoids increase	LC50 values of the peptoids increase
C[C@@H](c1ccccc1)N(CC(N)=O)C(=O)CN(CCCCN)C(=O)CN(CCCCN)C(=O)CN(C(=O)CN(C(=O)CN(CCCCN)C(=O)CN(C(=O)CN(C(=O)CN(CCCCN)C(=O)CN(CCc1c[nH]c2ccccc12)C(=O)CN(CCc1c[nH]c2ccccc12)C(=O)CNCCCCN)[C@@H](C)c1ccccc1)[C@@H](C)c1ccccc1)[C@@H](C)c1ccccc1)[C@@H](C)c1ccccc1 [Peptoid 32-1]	6.3	6.3	>100/>100 μM	>100/>100 μM	8.7 ± 0.6	–	LC50 values of the peptoids increase
C[C@@H](c1ccccc1)N(CC(N)=O)C(=O)CN(CCCCN)C(=O)CN(CCCCN)C(=O)CN(C(=O)CN(C(=O)CN(CCCCN)C(=O)CN(C(=O)CN(C(=O)CN(CCCCN)C(=O)CN(CCc1c[nH]c2ccccc12)C(=O)CN(CCc1c[nH]c2ccccc12)C(=O)CNCCCCN)[C@@H](C)c1ccccc1)[C@@H](C)c1ccccc1)[C@@H](C)c1ccccc1)[C@@H](C)c1ccccc1 [Peptoid 32-2]	6.3	6.3	83.0 µM	> 100 µM	13.8 ± 1.1	LC50 values of the peptoids increase	LC50 values of the peptoids increase
